Key:
[1] = test system: fully kindled (stage 5) seizures, hippocampal kindled rat; assay: Hippocampal kindled rat model (focal seizures); format: in vivo; conditions: for suppression of fully kindled (stage 5) seizures compared to vehicle controls: <100 mg/kg i.p.
Source text: Hippocampal Kindled Rat Test is designed to quantify the anti-convulsant effects of a test compound in the kindled rat model. Rats treated by i.p. injection.
The Kindled Rat is a model of temporal lobe epilepsy, which is the most common and drug-resistant type of adult focal epilepsy (Morimoto et al., 2004). […] This acquired hyper-responsiveness is called kindling and results not only in increased seizure responses but also in an elongation of the after-discharge duration seen on an EEC recording.
Electrodes are implanted into the hippocampus of anesthetized rats, which are then allowed to recover for one week. Following the rapid kindling protocol (Lothman and Williamson, Brain Res 1994, 649:71-84), the rats are stimulated with 200 jiA for 10 s, 50 Hz, every 30 minutes for six hours on alternate days until they are fully kindled (4-5 stimulus days). After one week of rest, the animals are given the same electrical stimulus which serves as a baseline. The animals are pretreated with the test compound (generally via i.p. injection) and then tested at various intervals. At each time point, the behavioral seizure score (BSS) and after-discharge duration (ADD) is recorded. The BSS's are scored according to the following criteria (Racine, Electroencephalogr Clin Neurophysiol 1972, 32:281-94): Stage 1—mouth and facial clonus; Stage 2—stage 1 plus head nodding; Stage 3—stage 2 plus forelimb clonus; Stage 4—stage 3 plus rearing; and Stage 5—stage 4 plus repeated rearing and falling.
The after discharge threshold (ADT) can also be measured in the kindled rat. The ADT is defined as the lowest current at which an after discharge of at least 4 s is elicited. […] The initial stimulation is conducted at an intensity of 20 uA with 10 uA increments every 1-2 min until an after discharge is elicited. Fifteen minutes after the pre-drug threshold determination, a single dose of the test substance is administered to two animals in a volume of 0.04 ml/10 g body weight. In this way the animals serves as its own control. The individual rat ADT is then determined at varying times (i.e., 0.25, 1, 2, and 4 hr) after drug administration.
Ability of a compound to block behavioral seizures and/or decrease the afterdischarge duration (ADD) in a hippocampal kindled rat model. The hippocampal kindled rat provides an experimental model of focal seizures that become secondarily generalized. This rat model is useful for not only identifying compounds effective against partial seizures, but also allows for the investigation of complex brain networks that may contribute to seizure spread and generalization from a focus. Moreover, of the various electrical kindling paradigms described in the literature, the hippocampal kindling model offers several distinct advantages for the routine screening and evaluation of potential anticonvulsant compounds. First, this model provides a temporal framework for assessing drug efficacy in a focal seizure model. Specifically, the refractory period of individual animals is sufficiently short to permit repeated stimulations over a short time span. Second, this kindled rat model can be employed to assess the ability of an investigational compound to block fully kindled seizures evoked by an electrical stimulus. Finally, the hippocampal kindled rat model can also be used to assess the ability of an investigational compound to elevate threshold to focal firing modulation by an investigational drug. Therefore, compounds with a subtle effect on focal seizure activity in the kindled rat are not likely to be overlooked in the threshold test, thereby making the hippocampal kindled rat a useful screen at the ETSP.
Animals are first surgically prepared for kindling acquisition. Adult, male Sprague-Dawley rats (275-300 g) are surgically implanted with bipolar electrodes. Briefly, a bipolar electrode is stereoaxically implanted into the ventral hippocampus (AP −3.6, ML −4.9, VD −5.0 from dura, incisor bar +5.0) under ketamine-xylazine anesthesia. […]

[2] = test system: formalin-induced paw licking; assay: Mouse formalin test; format: in vivo; conditions: 41 mg/kg i.p.; most pronounced in second (late) phase
Protocol: The formalin test is performed according to the method of Tjolsen et al. Pain, 1992. 51(1). An injection of 0.5% formalin (Sigma) is made into the planter region of the right hind paw of an adult (26-30 g) male CF-1 mouse. Sub-dermal formalin injection elicits a distinct behavioral profile characterized by the mouse licking the affected paw. The behavior is characteristically biphasic in nature. For example, immediately following the injection the mouse licks the paw intensely for approximately 10 min. This is referred to as phase 1 (or, the acute phase) and is followed by a brief latent period (<5 minutes) where there is little behavioral activity. A more prolonged period of about 20-30 min of activity then ensues, which constitutes phase 2 (or, the inflammatory phase). […] The area under the curve (AUG) is calculated for both the acute and inflammatory phases of the licking response for individual animals in both the test and control groups. The percent of control AUG for drug-treated animal groups is determined using the Graph-Pad Prism Version 3.03. The total AUG for each phase of the test group is also calculated and converted to percentage of total AUG of control for each phase. The average and S.E.M. for both the drug treated and control percentages are calculated and tested for significant difference.

Compound: C[C@@H](Oc1cc(Cl)cc(C(F)(F)F)c1)C(N)=O [I(D), (2R)-2-[3-chloro-5-(trifluoromethyl)-phenoxy]propanamide]
- Average Seizure ([1]; 20 mg/kg): 4.9
- N/F, number of animals active over the number tested ([1]; 20 mg/kg): 1/8
- Average Seizure ([1]; 40 mg/kg): 2.5
- N/F, number of animals active over the number tested ([1]; 40 mg/kg): 1/8
- Average Seizure ([1]; 80 mg/kg): 1
- N/F, number of animals active over the number tested ([1]; 80 mg/kg): 5/8
- suppression of fully kindled (stage 5) seizures compared to vehicle controls [1]: dose related suppression
- EC50, reduction of seizure score (seizure severity) ([1]; hippocampal kindled rat, Example 8): 49.4 ± 1.47 mg/kg

Compound: NC(=O)COc1cc(C(F)(F)F)cc(C(F)(F)F)c1 [I(F), 2-[3,5 bis(trifluoromethyl)-phenoxy]acetamide;]
- suppression of fully kindled (stage 5) seizures compared to vehicle controls [1]: dose related suppression
- number of paw licks [2]: significant decrease

Source: US10604476B2, “Fluorinated amide derivatives and their uses as therapeutic agents” (Trillium Therapeutics Inc., priority 2015, dated 2020)
